Measured values published in patent publication US20230416196A1, “DIMER OF BIGUANIDINES AND THEIR THERAPEUTIC USES” (INSTITUT CURIE, priority 2020, published 2023).

Assays:
[1] = tested on: EMT induction (E-cadherin, Fibronectin, Slug); assay: Western blot of epithelial and mesenchymal markers upon EMT induction; assay type: cell-based; conditions: TGF-β or OSM; FIG. 8D
Experimental: Cell culture. MCF7 (ATCC) cells, DU-145 (ATCC) cells and FC1245 cells were cultured in Dulbecco's Modified Eagle Medium GlutaMAX (DMEM, ThermoFisher Scientific, 61965059) supplemented with 10% Fetal Bovine Serum (FBS, Gibco, 10270-106) and Penicillin-Streptomycin mixture (BioWhittaker/Lonza, DE17-602E) unless stated otherwise. Primary lung circulating tumor cells (Celprogen, 36107-34CTC, Lot 219411) were grown using stem cell complete media (Celprogen, M36102-29PS) until the third passage. Circulating cancer cells were grown in stem cell ECM T75-flasks (Celprogen, E36102-29-T75) and ECM 6-well plates (Celprogen, E36102-29-6Well). […]
Western Blotting. […] Proteins were solubilized in 2× Laemmli buffer containing benzonase (VWR, 70664-3, 1:100), extracts were incubated at 37° C. for 1 h, and quantified using a NanoDrop 2000 spectrophotometer (ThermoFisher Scientific). […] Antigens were detected using the SuperSignal West Pico PLUS chemiluminescent detection kits (ThermoFisher Scientific, 34580 and 34096). Signals were recorded using a Fusion Solo S Imaging System (Vilber) and quantified as indicated using ImageJ. […]

[2] = tested on: mitochondrial NAD^+ and NADH in aMDM; assay: Mass spectrometry-based metabolomics of mitochondrial NAD+ and NADH in aMDM; assay type: cell-based, human; conditions: treatment during macrophage activation; FIG. 11D
Experimental: Mitochondrial extraction. Mitochondria were isolated using the Qproteome Mitochondria Isolation Kit (Qiagen, 37612) according to the manufacturer's protocol. In brief, cells were washed and centrifuged at 500× g for 10 min and the supernatant was removed. Cells were then washed with a solution of 0.9% NaCl (Sigma-Aldrich, 57653-250G) and resuspended in ice-cold Lysis Buffer and incubated at 4° C. for 10 min. The lysate was then centrifuged at 1000×g for 10 min at 4° C. and the supernatant carefully removed. Subsequently, the cell pellet was resuspended in disruption buffer. Complete cell disruption was obtained by using a dounce homogenizer (mitochondria for ICP-MS) or a blunt-ended needle and a syringe (mitochondria for metabolomics). The lysate was then centrifuged at 1000× g for 10 min at 4° C. and the supernatant transferred to a clean tube. The supernatant was then centrifuged at 6000× g for 10 min at 4° C. to obtain pellets containing mitochondria.
Quantitative metabolomics. In a typical experiment 1.5 million cells were used for total extracts and 15 million cells for mitochondrial extracts. Cells were harvested and the supernatant removed to generate the corresponding cell pellets. […] Peak detection and integration of the analytes were performed using the Agilent Mass Hunter quantitative software (B.07.01). […]

N=C(N)NC(=N)NCCCCCCCCCCCCNC(=N)NC(=N)N [LCC-12, lipophilic copper clamp C12]
EMT induction (E-cadherin, Fibronectin, Slug levels) [1]: antagonized EMT induction | mitochondrial NAD^+ and NADH levels [2]: decrease of both mitochondrial NAD^+ and NADH
